Source: PubChem BioAssay (NCI)
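Interpolation was linear, between the two tested concentrations surrounding the appropriate level; five concentrations were tested over 48 hours in 96-well plates. The concentration for 50% growth inhibition is given as GI50. At the TGI there is no net growth.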

Assays:
Test in all cases: inhibition of tumour cell growth, NCI panel, 48 h
786-0 renal = test system: 786-0 renal
A498 renal = test system: A498 renal
A549 NSCLC = test system: A549 NSCLC
ACHN renal = test system: ACHN renal
BT-549 breast = test system: BT-549 breast
CAKI-1 renal = test system: CAKI-1 renal
CCRF-CEM leukemia = test system: CCRF-CEM leukemia
COLO 205 colon = test system: COLO 205 colon
DU-145 prostate = test system: DU-145 prostate
EKVX NSCLC = test system: EKVX NSCLC
HCC-2998 colon = test system: HCC-2998 colon
HCT-116 colon = test system: HCT-116 colon
HCT-15 colon = test system: HCT-15 colon
HL-60(TB) leukemia = test system: HL-60(TB) leukemia
HOP-62 NSCLC = test system: HOP-62 NSCLC
HOP-92 NSCLC = test system: HOP-92 NSCLC
HS 578T breast = test system: HS 578T breast
HT29 colon = test system: HT29 colon
IGROV1 ovarian = test system: IGROV1 ovarian
K-562 leukemia = test system: K-562 leukemia
KM12 colon = test system: KM12 colon
LOX IMVI melanoma = test system: LOX IMVI melanoma
M14 melanoma = test system: M14 melanoma
MALME-3M melanoma = test system: MALME-3M melanoma
MCF7 breast = test system: MCF7 breast
MDA-MB-231 breast = test system: MDA-MB-231 breast
MDA-MB-435 = test system: MDA-MB-435
MOLT-4 leukemia = test system: MOLT-4 leukemia
NCI-H226 lung = test system: NCI-H226 lung
NCI-H23 lung = test system: NCI-H23 lung
NCI-H460 lung = test system: NCI-H460 lung
NCI-H522 lung = test system: NCI-H522 lung
NCI/ADR-RES ovarian = test system: NCI/ADR-RES ovarian
OVCAR-3 ovarian = test system: OVCAR-3 ovarian
OVCAR-4 ovarian = test system: OVCAR-4 ovarian
OVCAR-5 ovarian = test system: OVCAR-5 ovarian
OVCAR-8 ovarian = test system: OVCAR-8 ovarian
PC-3 prostate = test system: PC-3 prostate
RPMI-8226 leukemia = test system: RPMI-8226 leukemia
RXF 393 renal = test system: RXF 393 renal
SF-268 CNS = test system: SF-268 CNS
SF-295 CNS = test system: SF-295 CNS
SF-539 CNS = test system: SF-539 CNS
SK-MEL-2 melanoma = test system: SK-MEL-2 melanoma
SK-MEL-28 melanoma = test system: SK-MEL-28 melanoma
SK-MEL-5 melanoma = test system: SK-MEL-5 melanoma
SK-OV-3 ovarian = test system: SK-OV-3 ovarian
SN12C renal = test system: SN12C renal
SNB-19 CNS = test system: SNB-19 CNS
SNB-75 CNS = test system: SNB-75 CNS
SR leukemia = test system: SR leukemia
SW-620 colon = test system: SW-620 colon
T-47D breast = test system: T-47D breast
TK-10 renal = test system: TK-10 renal
U251 CNS = test system: U251 CNS
UACC-257 melanoma = test system: UACC-257 melanoma
UACC-62 melanoma = test system: UACC-62 melanoma
UO-31 renal = test system: UO-31 renal

O=C(CSc1nc2ccc([N+](=O)[O-])cc2[nH]1)Nc1ccc(F)c(Cl)c1
GI50 (786-0 renal): 2.84 µM | TGI (786-0 renal): 11.8 µM | GI50 (A498 renal): 1.11 µM | TGI (A498 renal): 3.6 µM | GI50 (A549 NSCLC): 2.48 µM | TGI (A549 NSCLC): 12.6 µM | GI50 (ACHN renal): 2.35 µM | TGI (ACHN renal): 7.93 µM | GI50 (BT-549 breast): 2.44 µM | TGI (BT-549 breast): 9.34 µM | GI50 (CAKI-1 renal): 1.95 µM | TGI (CAKI-1 renal): 7.33 µM | GI50 (CCRF-CEM leukemia): 2.75 µM | TGI (CCRF-CEM leukemia): > 45.7 µM | GI50 (COLO 205 colon): 1.6 µM | TGI (COLO 205 colon): 3.3 µM | GI50 (DU-145 prostate): 3.24 µM | TGI (DU-145 prostate): 13.4 µM | GI50 (EKVX NSCLC): 1.85 µM | TGI (EKVX NSCLC): 8.85 µM | GI50 (HCC-2998 colon): 2.95 µM | TGI (HCC-2998 colon): 11.8 µM | GI50 (HCT-116 colon): 2.42 µM | TGI (HCT-116 colon): 10.6 µM | GI50 (HCT-15 colon): 2.84 µM | TGI (HCT-15 colon): 13 µM | GI50 (HL-60(TB) leukemia): 2.21 µM | TGI (HL-60(TB) leukemia): 6.26 µM | GI50 (HOP-62 NSCLC): 2.46 µM | TGI (HOP-62 NSCLC): 9.89 µM | GI50 (HOP-92 NSCLC): 0.346 µM | TGI (HOP-92 NSCLC): 2.72 µM | GI50 (HS 578T breast): 2.45 µM | TGI (HS 578T breast): 9.63 µM | GI50 (HT29 colon): 3.14 µM | TGI (HT29 colon): 11.9 µM | GI50 (IGROV1 ovarian): 2.65 µM | TGI (IGROV1 ovarian): 14.6 µM | GI50 (K-562 leukemia): 2.44 µM | TGI (K-562 leukemia): > 42.3 µM | GI50 (KM12 colon): 2.83 µM | TGI (KM12 colon): 12.2 µM | GI50 (LOX IMVI melanoma): 2.89 µM | TGI (LOX IMVI melanoma): 14 µM | GI50 (M14 melanoma): 2.81 µM | TGI (M14 melanoma): 12.4 µM | GI50 (MALME-3M melanoma): 1.75 µM | TGI (MALME-3M melanoma): 6.96 µM | GI50 (MCF7 breast): 2.03 µM | TGI (MCF7 breast): 9.4 µM | GI50 (MDA-MB-231 breast): 1.91 µM | TGI (MDA-MB-231 breast): 5.59 µM | GI50 (MDA-MB-435): 2.6 µM | TGI (MDA-MB-435): 12.6 µM | GI50 (MOLT-4 leukemia): 2.7 µM | TGI (MOLT-4 leukemia): 19.9 µM | GI50 (NCI-H226 lung): 2.15 µM | TGI (NCI-H226 lung): 9.57 µM | GI50 (NCI-H23 lung): 2.05 µM | TGI (NCI-H23 lung): 8.79 µM | GI50 (NCI-H460 lung): 2.87 µM | TGI (NCI-H460 lung): 11.3 µM | GI50 (NCI-H522 lung): 2.37 µM | TGI (NCI-H522 lung): 12.4 µM | GI50 (NCI/ADR-RES ovarian): 2.31 µM | TGI (NCI/ADR-RES ovarian): 8.23 µM | GI50 (OVCAR-3 ovarian): 2 µM | TGI (OVCAR-3 ovarian): 10.1 µM | GI50 (OVCAR-4 ovarian): 1.99 µM | TGI (OVCAR-4 ovarian): 17.8 µM | GI50 (OVCAR-5 ovarian): 2.65 µM | TGI (OVCAR-5 ovarian): 11.5 µM | GI50 (OVCAR-8 ovarian): 3.04 µM | TGI (OVCAR-8 ovarian): > 34.4 µM | GI50 (PC-3 prostate): 2.57 µM | TGI (PC-3 prostate): 11.6 µM | GI50 (RPMI-8226 leukemia): 1.39 µM | TGI (RPMI-8226 leukemia): > 21.5 µM | GI50 (RXF 393 renal): 2.34 µM | TGI (RXF 393 renal): 7.84 µM | GI50 (SF-268 CNS): 2.91 µM | TGI (SF-268 CNS): 13.2 µM | GI50 (SF-295 CNS): 1.81 µM | TGI (SF-295 CNS): 5.5 µM | GI50 (SF-539 CNS): 3 µM | TGI (SF-539 CNS): 11.4 µM | GI50 (SK-MEL-2 melanoma): 2.22 µM | TGI (SK-MEL-2 melanoma): 6.35 µM | GI50 (SK-MEL-28 melanoma): 2.68 µM | TGI (SK-MEL-28 melanoma): 12.9 µM | GI50 (SK-MEL-5 melanoma): 1.22 µM | TGI (SK-MEL-5 melanoma): 3.03 µM | GI50 (SK-OV-3 ovarian): 1.42 µM | TGI (SK-OV-3 ovarian): 4.79 µM | GI50 (SN12C renal): 2.36 µM | TGI (SN12C renal): 10.7 µM | GI50 (SNB-19 CNS): 2.83 µM | TGI (SNB-19 CNS): 13.1 µM | GI50 (SNB-75 CNS): 1.84 µM | TGI (SNB-75 CNS): 7.5 µM | GI50 (SR leukemia): 3 µM | TGI (SR leukemia): > 37.3 µM | GI50 (SW-620 colon): 3.26 µM | TGI (SW-620 colon): 15.7 µM | GI50 (T-47D breast): 1.11 µM | TGI (T-47D breast): 10.2 µM | GI50 (TK-10 renal): 4.08 µM | TGI (TK-10 renal): 15.9 µM | GI50 (U251 CNS): 2.5 µM | TGI (U251 CNS): 12.3 µM | GI50 (UACC-257 melanoma): 1.54 µM | TGI (UACC-257 melanoma): 6.32 µM | GI50 (UACC-62 melanoma): 1.63 µM | TGI (UACC-62 melanoma): 10.5 µM | GI50 (UO-31 renal): 1.69 µM | TGI (UO-31 renal): 7.8 µM
